Key:
[1] = Bioavailability in human; type: ADME, organism-based; details: in vivo
[2] = Drug excretion in human urine; type: ADME, tissue-based; details: read-out: Drug excretion
[3] = Protein binding in human plasma; type: ADME, cell-free; details: read-out: PPB (converted)
[4] = Volume of distribution in human; type: ADME
[5] = Drug excretion in human feces; type: ADME, tissue-based; details: faeces, read-out: Drug excretion
[6] = Time to reach peak level in human; type: ADME
[7] = Elimination half life in human; type: ADME; details: read-out: beta t1/2 (converted)

bioavailability [1] [%]	dose excreted [2] [%]	fraction unbound [3]	Vd [4] [L]	dose excreted [5] [%]	Tmax [6] [h]	half-life [7] [h]	Compound
45	3	0.07	690	81	8		CCN1CCN(Cc2ccc(Nc3ncc(F)c(-c4cc(F)c5nc(C)n(C(C)C)c5c4)n3)nc2)CC1 [ABEMACICLIB]
			2580		6	29	CC(=O)c1c(C)c2cnc(Nc3ccc(N4CCNCC4)cn3)nc2n(C2CCCC2)c1=O [PALBOCICLIB]
	23		1090	69	1	30	CN(C)C(=O)c1cc2cnc(Nc3ccc(N4CCNCC4)cn3)nc2n1C1CCCC1 [RIBOCICLIB]

— ChEMBL document CHEMBL5647696, “Are all cyclin-dependent kinases 4/6 inhibitors created equal?” (NPJ Breast Cancer, 2019)
